# Reference: paper PMC10824666 (Nature Cancer, 2023)
# Like-named read-outs stand apart in the source and are kept apart here.
# Assays:
# Experiment in all cases: biochemical
# Design in all cases: Eurofins DiscoverX kinase panel, competitive binding assay at 1 uM, percent of DMSO control
# Details in all cases: competitive binding, percent of DMSO control
# CDK18 = CDK18 (Homo sapiens, UniProt Q07002)
# Description: (§1) Extended Data Fig. 3 In vitro characterization of potent and selective KIF18A inhibitors. a, KIF18A compounds (1 µM) were assessed across a panel of kinases (n = 96) by a competitive binding assay. Graph presented as percentage of control (POC); dashed line indicates POC value of 30 (n = 1 experiment). b, Tubulin polymerization analysis. Profile of KIF18A compounds (10 µM) relative to DMSO, paclitaxel (5 µM, tubulin stabilizer), or nocodazole (5 µM, tubulin destabilizer). Graphs presented as tubulin fluorescence signal at 440 nm expressed as arbitrary units (a.u.) versus time (min) with area-under-the-curve (AUC) values (n = 1 or 3 independent experiments). c, Mitotic spindle image analysis. […] Representative images were captured with x40 objective (scale bar = 10 µm) (n = 1 experiment). d-f, KIF18A compound effects on HeLa cells. d, Cells were treated for 96 h with DMSO or KIF18A compounds at the indicated concentrations. KIF18A compound concentration-response profiles presented as count relative to the percentage of DMSO control (POC) with count EC50 values (n = 2 independent experiments in duplicate). e, KIF18A protein localization in cells after treatment for 6 hours with DMSO or AM-1882 (0.05 µM). Cells stained to detect DNA, KIF18A, and centrin-3. Representative images of mitotic cells (n = 3 per group) were captured with x60 objective (scale bar = 5 µm) and graphs of line scan measurements were obtained for DNA, KIF18A, and centrin-3 channels expressed as fluorescence intensity (a.u.) versus distance (µm) (n = 1 experiment). f, Mitotic cell fate imaging analysis. HeLa Kyoto cells co-expressing α-tubulin-EGFP and H2B-mCherry proteins released from a G1S block in media containing DMSO or AM-1882 (0.2 µM). Analysis was performed on cells entering the first mitosis (n = 40 cells per group). Graph presented as time in mitosis (h) versus mitotic cell fate, either complete cell division (CCD) or death in mitosis (DiM). Classified cells exiting mitosis by the number of daughter cells and cell death in […] We screened a small-molecule library of diverse compounds for selective inhibitors of KIF18A MT-ATPase motor activity. Two compound hits were discovered that phenocopied the effects of KIF18A KD in cells; these hits are structurally distinct from the KIF18A inhibitor BTB-1 (refs. [27],[28]). […] However, the potency of the KIF18A inhibitors was unaffected by varying ATP and MT concentrations (Extended Data Fig. 2d). This supports our proposed model in which KIF18A inhibitors occupy an allosteric pocket formed by motor helices α4 and α6 close to the motor MT-binding surface. To screen for potential off-target interactions with essential mitotic kinases, three of the KIF18A compounds were profiled against a large panel of kinases. […] We next investigated whether our KIF18A inhibitors affected tubulin polymerization in vitro in the absence of the KIF18A motor. All four KIF18A compounds had tubulin-polymerization profiles similar to that of the DMSO control and distinct from those of the paclitaxel (MT stabilizer) and nocodazole (MT destabilizer) co
# EPHA2 = EPHA2 (Homo sapiens, UniProt P29317)
# Description: as §1
# LIMK1 = LIMK1 (Homo sapiens, UniProt P53667)
# Description: as §1
# MLTK = target: T1, MLTK (Homo sapiens, UniProt Q9NYL2)
# T1 construct: gene MAP3K20
# Description: as §1
# OXSR1 = OXSR1 (Homo sapiens, UniProt O95747)
# Description: as §1
# STK32B = STK32B (Homo sapiens, UniProt Q9NY57)
# Description: as §1
# TSSK1B = target: T2, TSSK1B (Homo sapiens, UniProt Q9BXA7)
# T2 sequence (Q9BXA7 1-367): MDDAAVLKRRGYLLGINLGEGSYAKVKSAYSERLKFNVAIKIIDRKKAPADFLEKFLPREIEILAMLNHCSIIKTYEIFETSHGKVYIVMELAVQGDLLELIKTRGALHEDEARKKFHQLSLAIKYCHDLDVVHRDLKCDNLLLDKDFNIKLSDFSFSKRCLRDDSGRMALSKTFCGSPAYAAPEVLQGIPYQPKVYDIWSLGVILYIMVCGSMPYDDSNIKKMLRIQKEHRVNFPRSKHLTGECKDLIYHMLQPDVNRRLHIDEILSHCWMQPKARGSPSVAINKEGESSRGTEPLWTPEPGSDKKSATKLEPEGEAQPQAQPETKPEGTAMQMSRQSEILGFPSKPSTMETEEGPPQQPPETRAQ
# Description: as §1
# WEE1 = WEE1 (Homo sapiens, UniProt P30291)
# Description: as §1
# c-KIT = c-KIT (Homo sapiens, UniProt P10721)
# Description: as §1
# [1] = read-out: Kinome Profiling performed by Eurofins DiscoverX / AM-1882, 1.0 µM / POC
# [2] = read-out: Kinome Profiling performed by Eurofins DiscoverX / AM-0277, 1.0 µM / POC
# [3] = read-out: Kinome Profiling performed by Eurofins DiscoverX / AM-5308, 1.0 µM / POC
# T1 sequence (Q9NYL2 whole entry): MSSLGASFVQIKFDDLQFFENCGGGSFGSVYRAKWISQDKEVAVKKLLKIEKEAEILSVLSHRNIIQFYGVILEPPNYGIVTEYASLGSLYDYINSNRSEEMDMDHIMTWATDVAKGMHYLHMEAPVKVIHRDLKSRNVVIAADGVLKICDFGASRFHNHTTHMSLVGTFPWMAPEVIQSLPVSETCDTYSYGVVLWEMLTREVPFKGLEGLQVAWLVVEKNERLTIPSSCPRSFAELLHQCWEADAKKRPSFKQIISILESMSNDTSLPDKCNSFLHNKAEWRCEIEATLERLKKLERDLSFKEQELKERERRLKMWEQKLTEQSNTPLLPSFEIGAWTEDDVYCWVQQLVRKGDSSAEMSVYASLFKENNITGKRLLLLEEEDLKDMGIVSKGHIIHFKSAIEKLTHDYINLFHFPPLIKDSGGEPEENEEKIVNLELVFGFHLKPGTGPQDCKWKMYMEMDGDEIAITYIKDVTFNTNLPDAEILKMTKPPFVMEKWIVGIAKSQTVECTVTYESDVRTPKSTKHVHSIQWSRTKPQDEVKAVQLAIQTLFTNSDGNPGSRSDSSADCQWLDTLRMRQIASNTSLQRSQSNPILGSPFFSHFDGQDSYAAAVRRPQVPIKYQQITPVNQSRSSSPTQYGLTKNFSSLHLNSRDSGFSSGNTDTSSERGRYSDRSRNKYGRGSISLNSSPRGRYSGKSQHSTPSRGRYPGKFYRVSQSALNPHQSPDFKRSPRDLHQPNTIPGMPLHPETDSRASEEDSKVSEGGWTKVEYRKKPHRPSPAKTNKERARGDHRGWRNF
# Sequence of EPHA2 (P29317 whole entry): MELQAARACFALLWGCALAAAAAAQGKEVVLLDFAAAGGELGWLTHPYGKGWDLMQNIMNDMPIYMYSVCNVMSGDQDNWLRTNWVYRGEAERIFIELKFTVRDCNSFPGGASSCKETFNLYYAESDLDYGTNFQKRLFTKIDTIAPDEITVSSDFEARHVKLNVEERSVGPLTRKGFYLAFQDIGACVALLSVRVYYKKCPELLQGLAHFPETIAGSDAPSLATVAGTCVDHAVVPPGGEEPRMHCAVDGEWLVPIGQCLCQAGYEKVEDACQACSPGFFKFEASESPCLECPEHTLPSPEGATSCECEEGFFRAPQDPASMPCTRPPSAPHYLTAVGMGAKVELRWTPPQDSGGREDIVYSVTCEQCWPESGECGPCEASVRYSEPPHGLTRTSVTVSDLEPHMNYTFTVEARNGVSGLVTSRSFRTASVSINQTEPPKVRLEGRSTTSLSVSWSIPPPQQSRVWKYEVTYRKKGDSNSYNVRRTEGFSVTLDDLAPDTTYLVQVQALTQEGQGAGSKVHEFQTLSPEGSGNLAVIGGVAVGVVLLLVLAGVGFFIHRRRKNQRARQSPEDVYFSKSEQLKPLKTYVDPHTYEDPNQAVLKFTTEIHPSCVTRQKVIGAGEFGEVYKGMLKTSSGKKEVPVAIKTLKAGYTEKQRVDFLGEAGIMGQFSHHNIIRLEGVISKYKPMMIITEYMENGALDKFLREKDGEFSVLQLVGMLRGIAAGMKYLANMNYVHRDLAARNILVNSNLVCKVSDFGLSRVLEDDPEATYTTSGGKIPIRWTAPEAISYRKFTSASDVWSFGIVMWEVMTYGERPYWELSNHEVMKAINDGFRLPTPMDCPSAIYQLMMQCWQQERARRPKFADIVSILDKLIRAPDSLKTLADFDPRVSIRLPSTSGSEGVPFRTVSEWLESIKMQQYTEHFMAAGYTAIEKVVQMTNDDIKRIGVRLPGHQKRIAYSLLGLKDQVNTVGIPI
# Sequence of CDK18 (Q07002 whole entry): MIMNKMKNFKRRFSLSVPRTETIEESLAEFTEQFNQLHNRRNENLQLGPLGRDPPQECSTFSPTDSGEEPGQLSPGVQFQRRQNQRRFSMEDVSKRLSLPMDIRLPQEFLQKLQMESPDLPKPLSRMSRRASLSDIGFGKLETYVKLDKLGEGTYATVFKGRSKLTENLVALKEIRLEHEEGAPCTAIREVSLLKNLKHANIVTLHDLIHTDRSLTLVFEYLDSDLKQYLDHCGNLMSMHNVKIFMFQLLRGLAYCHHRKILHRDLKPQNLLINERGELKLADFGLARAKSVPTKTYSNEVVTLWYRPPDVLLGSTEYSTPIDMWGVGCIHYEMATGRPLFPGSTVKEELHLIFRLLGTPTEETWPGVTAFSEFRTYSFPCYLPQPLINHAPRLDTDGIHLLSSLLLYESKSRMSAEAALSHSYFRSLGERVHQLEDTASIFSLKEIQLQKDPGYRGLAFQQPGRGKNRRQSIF
# Sequence of c-KIT (P10721 whole entry): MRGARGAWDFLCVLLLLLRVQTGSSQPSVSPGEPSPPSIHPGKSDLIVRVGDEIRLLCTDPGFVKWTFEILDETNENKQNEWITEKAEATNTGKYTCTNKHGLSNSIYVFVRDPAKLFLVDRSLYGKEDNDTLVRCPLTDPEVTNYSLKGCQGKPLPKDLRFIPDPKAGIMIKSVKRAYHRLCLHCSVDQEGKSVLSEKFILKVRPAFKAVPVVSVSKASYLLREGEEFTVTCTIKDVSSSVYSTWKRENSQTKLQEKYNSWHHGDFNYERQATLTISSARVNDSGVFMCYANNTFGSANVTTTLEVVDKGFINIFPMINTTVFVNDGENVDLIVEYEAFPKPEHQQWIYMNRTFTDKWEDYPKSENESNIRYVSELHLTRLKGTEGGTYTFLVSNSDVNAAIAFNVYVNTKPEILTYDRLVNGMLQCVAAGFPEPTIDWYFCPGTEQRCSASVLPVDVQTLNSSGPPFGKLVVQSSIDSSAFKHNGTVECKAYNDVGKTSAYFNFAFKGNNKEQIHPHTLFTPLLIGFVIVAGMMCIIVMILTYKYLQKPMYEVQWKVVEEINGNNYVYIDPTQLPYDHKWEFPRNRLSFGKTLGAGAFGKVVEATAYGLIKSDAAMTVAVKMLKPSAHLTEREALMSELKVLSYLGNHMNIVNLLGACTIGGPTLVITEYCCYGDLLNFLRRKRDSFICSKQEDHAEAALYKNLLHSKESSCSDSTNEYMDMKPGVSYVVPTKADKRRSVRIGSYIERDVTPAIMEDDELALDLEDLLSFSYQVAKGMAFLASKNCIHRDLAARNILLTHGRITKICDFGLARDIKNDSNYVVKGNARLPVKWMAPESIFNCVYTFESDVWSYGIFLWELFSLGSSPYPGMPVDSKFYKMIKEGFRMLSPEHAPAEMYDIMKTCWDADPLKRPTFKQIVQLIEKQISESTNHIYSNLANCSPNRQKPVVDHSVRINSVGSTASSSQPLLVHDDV
# Sequence of STK32B (Q9NY57 whole entry): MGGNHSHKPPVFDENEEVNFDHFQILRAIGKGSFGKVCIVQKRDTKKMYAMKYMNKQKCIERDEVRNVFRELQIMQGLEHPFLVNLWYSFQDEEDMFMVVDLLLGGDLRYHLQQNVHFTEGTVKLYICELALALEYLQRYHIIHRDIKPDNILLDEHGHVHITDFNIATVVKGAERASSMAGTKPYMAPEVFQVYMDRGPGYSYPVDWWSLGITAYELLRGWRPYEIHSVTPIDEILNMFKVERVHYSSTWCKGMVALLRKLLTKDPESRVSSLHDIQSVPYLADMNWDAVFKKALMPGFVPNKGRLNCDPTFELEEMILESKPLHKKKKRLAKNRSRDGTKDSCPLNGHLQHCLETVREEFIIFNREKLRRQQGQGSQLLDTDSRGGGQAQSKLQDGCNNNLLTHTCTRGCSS
# Sequence of LIMK1 (P53667 whole entry): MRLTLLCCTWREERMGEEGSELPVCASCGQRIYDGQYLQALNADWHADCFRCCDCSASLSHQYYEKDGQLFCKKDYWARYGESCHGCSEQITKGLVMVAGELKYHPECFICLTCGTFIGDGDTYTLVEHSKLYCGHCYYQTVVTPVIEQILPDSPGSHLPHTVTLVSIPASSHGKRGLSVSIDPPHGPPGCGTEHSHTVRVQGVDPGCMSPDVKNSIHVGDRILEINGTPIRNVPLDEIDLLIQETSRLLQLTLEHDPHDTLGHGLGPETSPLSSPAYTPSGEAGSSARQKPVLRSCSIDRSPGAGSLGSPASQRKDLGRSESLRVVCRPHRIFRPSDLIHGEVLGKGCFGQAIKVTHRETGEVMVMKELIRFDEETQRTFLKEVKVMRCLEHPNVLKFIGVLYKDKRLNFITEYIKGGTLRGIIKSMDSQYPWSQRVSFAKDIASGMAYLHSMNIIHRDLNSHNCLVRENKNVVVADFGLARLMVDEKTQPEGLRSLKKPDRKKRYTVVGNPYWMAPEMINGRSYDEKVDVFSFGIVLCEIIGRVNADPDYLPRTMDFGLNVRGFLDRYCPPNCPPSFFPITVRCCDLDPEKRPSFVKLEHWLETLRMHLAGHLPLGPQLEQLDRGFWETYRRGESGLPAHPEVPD
# Sequence of OXSR1 (O95747 whole entry): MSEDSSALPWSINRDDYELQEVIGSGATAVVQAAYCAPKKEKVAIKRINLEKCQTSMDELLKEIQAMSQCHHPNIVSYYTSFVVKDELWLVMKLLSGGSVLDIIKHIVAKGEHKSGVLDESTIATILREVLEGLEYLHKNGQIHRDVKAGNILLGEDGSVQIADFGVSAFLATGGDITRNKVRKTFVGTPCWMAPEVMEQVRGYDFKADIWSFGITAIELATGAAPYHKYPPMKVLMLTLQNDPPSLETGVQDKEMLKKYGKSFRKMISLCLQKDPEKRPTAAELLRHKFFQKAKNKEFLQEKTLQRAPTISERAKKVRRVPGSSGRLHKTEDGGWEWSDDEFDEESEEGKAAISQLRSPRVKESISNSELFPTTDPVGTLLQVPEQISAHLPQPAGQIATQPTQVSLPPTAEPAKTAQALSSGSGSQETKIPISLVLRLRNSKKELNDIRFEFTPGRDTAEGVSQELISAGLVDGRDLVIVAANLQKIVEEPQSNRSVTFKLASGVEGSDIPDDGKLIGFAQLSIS
smiles,measurement,setting,value
CC(C)(C)NS(=O)(=O)c1cccc(NC(=O)c2ccc(S(=O)(=O)NC(C)(C)C)cc2N2CCC3(CC2)CC3)c1 [AM-1882],remaining activity at 1 µM,CDK18; [1],76%
same,remaining activity at 1 µM,EPHA2; [1],99.5%
same,remaining activity at 1 µM,LIMK1; [1],87%
same,remaining activity at 1 µM,MLTK; [1],84.5%
same,remaining activity at 1 µM,OXSR1; [1],92.5%
same,remaining activity at 1 µM,STK32B; [1],100%
same,remaining activity at 1 µM,TSSK1B; [1],100%
same,remaining activity at 1 µM,WEE1; [1],50%
same,remaining activity at 1 µM,c-KIT; [1],100%
CC(C)(CO)Nc1ccc(C(=O)Nc2cccc(S(=O)(=O)C3CCCC3)c2)c(N2CCC3(CC2)CC3)n1 [AM-0277],remaining activity at 1 µM,CDK18; [2],78%
same,remaining activity at 1 µM,EPHA2; [2],80%
same,remaining activity at 1 µM,LIMK1; [2],95%
same,remaining activity at 1 µM,MLTK; [2],90%
same,remaining activity at 1 µM,OXSR1; [2],100%
same,remaining activity at 1 µM,STK32B; [2],100%
same,remaining activity at 1 µM,TSSK1B; [2],84%
same,remaining activity at 1 µM,WEE1; [2],100%
same,remaining activity at 1 µM,c-KIT; [2],92%
C[C@@H]1CN(c2cccc(NC(=O)c3ccc(NS(=O)(=O)CCO)cc3N3CCC4(CC3)CC4)n2)CCO1 [AM-5308],remaining activity at 1 µM,CDK18; [3],94%
same,remaining activity at 1 µM,EPHA2; [3],92.5%
same,remaining activity at 1 µM,LIMK1; [3],92.5%
same,remaining activity at 1 µM,MLTK; [3],100%
same,remaining activity at 1 µM,OXSR1; [3],82.5%
same,remaining activity at 1 µM,STK32B; [3],96%
same,remaining activity at 1 µM,TSSK1B; [3],100%
same,remaining activity at 1 µM,WEE1; [3],100%
same,remaining activity at 1 µM,c-KIT; [3],100%
